Test results taken from patent US9365572B2, “PI3K and/or mTOR inhibitor” (XUANZHU PHARMA CO., LTD., priority 2012, dated 2016).

Legend:
Adrenergic α1A = Adrenergic α1A (Rattus norvegicus (Rat), UniProt P43140); assay: Radioligand binding assay No. 203100; conditions: test substance 10 μM, read-out: Inhibitory rate (%), Adrenergic α1A
Adrenergic α1B = Adrenergic α1B (Rattus norvegicus (Rat), UniProt P15823); assay: Radioligand binding assay No. 203200; conditions: test substance 10 μM, read-out: Inhibitory rate (%), Adrenergic α1B
Adrenergic α1B, sequence (P15823 whole entry): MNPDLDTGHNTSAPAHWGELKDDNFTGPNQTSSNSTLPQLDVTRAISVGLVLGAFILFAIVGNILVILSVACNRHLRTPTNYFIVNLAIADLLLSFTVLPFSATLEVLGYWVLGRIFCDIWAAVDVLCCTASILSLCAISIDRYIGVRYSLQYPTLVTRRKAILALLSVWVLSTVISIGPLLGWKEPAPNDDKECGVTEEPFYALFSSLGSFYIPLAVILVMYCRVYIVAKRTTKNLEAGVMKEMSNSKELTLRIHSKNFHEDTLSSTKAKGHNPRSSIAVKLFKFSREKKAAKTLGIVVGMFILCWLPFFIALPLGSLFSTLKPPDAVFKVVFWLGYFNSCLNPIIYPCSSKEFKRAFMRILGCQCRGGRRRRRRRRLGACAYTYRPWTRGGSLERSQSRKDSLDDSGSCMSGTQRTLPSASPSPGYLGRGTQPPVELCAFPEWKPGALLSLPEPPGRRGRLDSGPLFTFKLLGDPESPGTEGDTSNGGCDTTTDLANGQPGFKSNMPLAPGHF

Adrenergic α1D = Adrenergic α1D (Homo sapiens (Human), UniProt P25100); assay: Radioligand binding assay No. 203400; conditions: test substance 10 μM, read-out: Inhibitory rate (%), Adrenergic α1D
Adrenergic α1D, sequence (P25100 whole entry): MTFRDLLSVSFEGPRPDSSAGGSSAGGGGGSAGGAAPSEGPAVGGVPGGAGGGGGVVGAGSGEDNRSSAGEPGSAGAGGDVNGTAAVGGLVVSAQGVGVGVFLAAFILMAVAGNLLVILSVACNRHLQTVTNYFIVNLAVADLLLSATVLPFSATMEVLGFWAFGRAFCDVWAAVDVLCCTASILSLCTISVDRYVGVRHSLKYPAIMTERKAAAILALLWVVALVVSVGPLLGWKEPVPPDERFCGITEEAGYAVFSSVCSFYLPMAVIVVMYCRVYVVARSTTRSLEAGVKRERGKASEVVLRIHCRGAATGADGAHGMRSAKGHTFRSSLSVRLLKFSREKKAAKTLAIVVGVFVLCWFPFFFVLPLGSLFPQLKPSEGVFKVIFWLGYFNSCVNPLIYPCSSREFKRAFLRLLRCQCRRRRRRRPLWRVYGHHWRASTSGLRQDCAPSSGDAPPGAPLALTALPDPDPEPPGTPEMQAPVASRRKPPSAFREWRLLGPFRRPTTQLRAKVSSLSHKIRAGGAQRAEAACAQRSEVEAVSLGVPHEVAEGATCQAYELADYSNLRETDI

Dopamine D4.2 = Dopamine D4.2 (Homo sapiens (Human), UniProt P21917, DEL265-296); assay: Radioligand binding assay No. 219900; conditions: test substance 10 μM, read-out: Inhibitory rate (%), Dopamine D4.2
Dopamine D4.2, sequence (P21917 other isoform, or with tags, fused parts or gaps del 265-296): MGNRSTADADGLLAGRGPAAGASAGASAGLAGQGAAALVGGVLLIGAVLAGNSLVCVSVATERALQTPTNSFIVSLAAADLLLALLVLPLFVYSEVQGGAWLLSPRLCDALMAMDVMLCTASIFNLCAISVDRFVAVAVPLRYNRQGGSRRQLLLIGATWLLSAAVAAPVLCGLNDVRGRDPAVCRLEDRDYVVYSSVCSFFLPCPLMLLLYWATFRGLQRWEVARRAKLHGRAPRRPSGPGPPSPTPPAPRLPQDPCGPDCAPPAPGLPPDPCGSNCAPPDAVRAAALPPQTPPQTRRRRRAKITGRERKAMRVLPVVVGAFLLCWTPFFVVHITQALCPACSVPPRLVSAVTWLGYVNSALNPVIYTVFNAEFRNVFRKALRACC

GABAA, Muscimol, Central = assay: Radioligand binding assay No. 226500; conditions: test substance 10 μM; rat
Histamine H3 = Histamine H3 (Homo sapiens (Human), UniProt Q9Y5N1); assay: Radioligand binding assay No. 239820; conditions: test substance 10 μM, read-out: Inhibitory rate (%), Histamine H3
Histamine H3, sequence (Q9Y5N1 whole entry): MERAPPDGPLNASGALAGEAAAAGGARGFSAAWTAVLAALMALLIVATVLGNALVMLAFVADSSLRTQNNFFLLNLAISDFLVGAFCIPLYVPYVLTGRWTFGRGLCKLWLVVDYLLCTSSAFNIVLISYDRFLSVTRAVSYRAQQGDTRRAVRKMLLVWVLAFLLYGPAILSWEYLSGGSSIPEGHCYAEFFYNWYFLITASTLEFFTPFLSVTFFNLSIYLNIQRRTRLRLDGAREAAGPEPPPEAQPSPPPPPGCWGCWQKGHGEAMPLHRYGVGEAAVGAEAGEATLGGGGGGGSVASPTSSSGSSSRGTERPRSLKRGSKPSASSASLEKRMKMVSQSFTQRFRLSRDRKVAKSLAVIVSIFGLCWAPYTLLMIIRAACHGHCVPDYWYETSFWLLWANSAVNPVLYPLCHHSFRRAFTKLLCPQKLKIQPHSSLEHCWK

Neuropeptide Y Y2 = Neuropeptide Y Y2 (Homo sapiens (Human), UniProt P49146); assay: Radioligand binding assay No. 257110; conditions: test substance 10 μM, read-out: Inhibitory rate (%), Neuropeptide Y Y2
Neuropeptide Y Y2, sequence (P49146 whole entry): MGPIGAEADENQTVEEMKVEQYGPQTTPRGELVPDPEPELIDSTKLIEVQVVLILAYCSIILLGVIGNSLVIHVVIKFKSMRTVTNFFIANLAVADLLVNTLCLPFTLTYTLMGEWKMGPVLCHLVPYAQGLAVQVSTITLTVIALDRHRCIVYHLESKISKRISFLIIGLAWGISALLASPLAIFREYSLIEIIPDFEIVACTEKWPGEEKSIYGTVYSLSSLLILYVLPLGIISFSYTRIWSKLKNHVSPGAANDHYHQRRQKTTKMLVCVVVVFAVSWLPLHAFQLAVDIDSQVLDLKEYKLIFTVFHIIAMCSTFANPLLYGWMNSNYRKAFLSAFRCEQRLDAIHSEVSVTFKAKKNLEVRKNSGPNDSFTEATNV

Nicotinic Acetylcholine = assay: Radioligand binding assay No. 258590; conditions: test substance 10 μM; Human
[1] = target: Nicotinic Acetylcholine α1, Bungarotoxin (Homo sapiens (Human), UniProt P02708+P07510+Q07001); assay: Radioligand binding assay No. 258700; conditions: read-out: Inhibitory rate (%), Nicotinic Acetylcholine α1, Bungarotoxin
Opiate κ(OP2, KOP) = Opiate κ(OP2, KOP) (Homo sapiens (Human), UniProt P41145); assay: Radioligand binding assay No. 260210; conditions: test substance 10 μM, read-out: Inhibitory rate (%), Opiate κ(OP2, KOP)
Opiate κ(OP2, KOP), sequence (P41145 whole entry): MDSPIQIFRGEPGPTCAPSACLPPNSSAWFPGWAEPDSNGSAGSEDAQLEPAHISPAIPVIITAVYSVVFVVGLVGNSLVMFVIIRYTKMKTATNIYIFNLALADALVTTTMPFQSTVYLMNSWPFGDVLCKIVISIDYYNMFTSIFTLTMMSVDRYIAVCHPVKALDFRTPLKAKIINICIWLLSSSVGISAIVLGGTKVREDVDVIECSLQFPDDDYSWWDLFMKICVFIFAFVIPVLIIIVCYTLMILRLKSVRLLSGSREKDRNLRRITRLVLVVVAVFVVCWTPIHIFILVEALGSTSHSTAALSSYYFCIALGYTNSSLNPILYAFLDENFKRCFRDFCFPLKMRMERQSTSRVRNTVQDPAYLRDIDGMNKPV

Potassium Channel [KATP] = assay: Radioligand binding assay No. 265600; conditions: test substance 10 μM; Human
Potassium Channel hERG = Potassium Channel hERG (Homo sapiens (Human), UniProt Q12809); assay: Radioligand binding assay No. 265900; conditions: test substance 10 μM, read-out: Inhibitory rate (%), Potassium Channel hERG
Potassium Channel hERG, sequence (Q12809 whole entry): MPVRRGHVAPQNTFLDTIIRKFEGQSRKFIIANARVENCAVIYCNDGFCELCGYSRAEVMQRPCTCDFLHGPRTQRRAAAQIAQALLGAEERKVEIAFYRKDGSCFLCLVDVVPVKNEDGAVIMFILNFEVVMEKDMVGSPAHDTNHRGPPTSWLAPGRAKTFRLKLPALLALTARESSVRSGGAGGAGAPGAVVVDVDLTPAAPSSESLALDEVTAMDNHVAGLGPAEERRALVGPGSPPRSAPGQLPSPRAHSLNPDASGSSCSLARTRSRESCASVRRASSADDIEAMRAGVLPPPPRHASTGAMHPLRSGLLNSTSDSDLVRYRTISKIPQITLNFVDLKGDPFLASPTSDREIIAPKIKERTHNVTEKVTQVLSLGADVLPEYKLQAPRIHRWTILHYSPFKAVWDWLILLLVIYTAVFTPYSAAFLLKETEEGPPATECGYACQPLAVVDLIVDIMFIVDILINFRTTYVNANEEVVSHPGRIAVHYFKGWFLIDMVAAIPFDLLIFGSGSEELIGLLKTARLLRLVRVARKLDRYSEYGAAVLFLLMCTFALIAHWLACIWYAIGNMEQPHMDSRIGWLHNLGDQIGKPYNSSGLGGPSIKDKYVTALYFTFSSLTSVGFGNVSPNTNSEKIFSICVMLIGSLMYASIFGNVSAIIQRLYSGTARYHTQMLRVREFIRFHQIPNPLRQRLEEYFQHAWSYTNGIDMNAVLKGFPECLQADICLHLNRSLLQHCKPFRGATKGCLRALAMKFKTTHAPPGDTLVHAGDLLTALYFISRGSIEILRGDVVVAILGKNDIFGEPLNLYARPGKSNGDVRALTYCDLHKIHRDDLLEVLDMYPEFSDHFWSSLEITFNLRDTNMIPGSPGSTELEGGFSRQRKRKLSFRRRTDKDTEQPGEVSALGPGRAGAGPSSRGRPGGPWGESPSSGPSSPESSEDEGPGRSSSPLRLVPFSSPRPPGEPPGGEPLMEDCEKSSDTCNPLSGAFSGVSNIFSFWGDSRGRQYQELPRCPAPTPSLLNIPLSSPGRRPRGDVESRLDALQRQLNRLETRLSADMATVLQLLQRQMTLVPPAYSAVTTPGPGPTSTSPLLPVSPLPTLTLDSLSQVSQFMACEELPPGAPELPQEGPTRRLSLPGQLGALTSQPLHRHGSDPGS

Prostanoid EP4 = Prostanoid EP4 (Homo sapiens (Human), UniProt P35408); assay: Radioligand binding assay No. 268420; conditions: test substance 10 μM, read-out: Inhibitory rate (%), Prostanoid EP4
Prostanoid EP4, sequence (P35408 whole entry): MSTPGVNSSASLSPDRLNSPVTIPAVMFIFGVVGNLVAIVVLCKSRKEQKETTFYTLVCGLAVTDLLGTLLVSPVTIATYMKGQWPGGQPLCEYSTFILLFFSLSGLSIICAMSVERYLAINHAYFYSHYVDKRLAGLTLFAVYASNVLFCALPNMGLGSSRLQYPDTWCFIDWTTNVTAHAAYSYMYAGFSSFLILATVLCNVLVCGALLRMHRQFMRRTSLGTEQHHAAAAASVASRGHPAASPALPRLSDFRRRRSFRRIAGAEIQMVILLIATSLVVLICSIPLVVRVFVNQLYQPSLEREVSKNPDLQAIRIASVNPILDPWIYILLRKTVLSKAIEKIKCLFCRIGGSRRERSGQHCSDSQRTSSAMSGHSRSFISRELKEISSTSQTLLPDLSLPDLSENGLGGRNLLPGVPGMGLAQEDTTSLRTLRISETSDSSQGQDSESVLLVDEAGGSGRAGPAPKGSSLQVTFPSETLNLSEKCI

Rolipram = assay: Radioligand binding assay No. 270000; conditions: test substance 10 μM; rat
[2] = target: Transporter, Dopamine (DAT) (Homo sapiens (Human), UniProt Q01959); assay: Radioligand binding assay No. 220320; conditions: test substance 10 μM, read-out: Inhibitory rate (%), Transporter, Dopamine (DAT)
A498 = assay: In vitro cytological inhibitory activity (XTT); assay type: cell-based; conditions: Homo sapiens, 72 hrs
Protocol: A498: Human renal carcinoma cell line.
(§1) 1. Preparation of agents and compounds:
(§2) • 1.1 Preparation of phosphoric acid buffering solution (PBS): 8 g NaCl, 0.2 g KCl, 1.44 g Na2HPO4 and 0.24 g KH2PO4 were weighed and added to 800 mL ultrapure water. The mixture was adjusted to pH=7.4, and ultrapure water was added to the metered volume of IL. Then the autoclaving was conducted for 20 mins. • 1.2 Preparation of XTT detection working solution: 100 mg (2,3-Bis-(2-methoxy-4-nitro-5-sulfophenyl)-2H-tetrazolium-5-carboxanilide); 2,3-bis(2-methoxy-4-nitro-5-sulfophenyl)-5-[(phenylamino)carbonyl]-2H-tetrazolium hydroxide (XTT) powder was weighed, and dissolved under protection from light 300 mL of phenol red-free and serum-free RPMI1640 culture, which had been warmed up to 50° C. The resulting mixture was filtered, packaged and used immediately or in one week. The complete process was conducted under protection from light. • 1.3 Preparation of the test compound • Preparation of the stock solution of the test compound: The test compound powder was dissolved in DMSO in a concentration of 10 mM. • Preparation of the gradiently diluted solution of the test compound: 10 mM of the stock solution of the test compound was successively and gradiently diluted with DMSO by 4 folds for 10 concentrations. […]

A549 = assay: In vitro cytological inhibitory activity (XTT); assay type: cell-based; conditions: Homo sapiens, 72 hrs
Protocol: A549: Human lung cancer cell line;
as §1, §2

Adrenergic α1A, sequence (P43140 whole entry): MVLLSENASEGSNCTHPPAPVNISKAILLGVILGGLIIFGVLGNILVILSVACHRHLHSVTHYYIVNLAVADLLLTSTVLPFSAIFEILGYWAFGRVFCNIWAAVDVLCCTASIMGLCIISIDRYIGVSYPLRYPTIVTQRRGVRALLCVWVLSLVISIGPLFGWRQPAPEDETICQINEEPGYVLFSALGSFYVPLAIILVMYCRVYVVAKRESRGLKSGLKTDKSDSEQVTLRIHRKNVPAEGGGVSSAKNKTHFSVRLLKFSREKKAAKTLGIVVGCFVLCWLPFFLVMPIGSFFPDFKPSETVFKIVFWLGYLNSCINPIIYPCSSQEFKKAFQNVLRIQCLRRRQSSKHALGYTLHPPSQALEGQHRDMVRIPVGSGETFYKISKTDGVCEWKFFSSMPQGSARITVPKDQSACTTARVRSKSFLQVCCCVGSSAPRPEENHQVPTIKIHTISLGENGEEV

Structure (SMILES) | inhibition at 10 µM (Adrenergic α1A) | inhibition at 10 µM (Adrenergic α1B) | inhibition at 10 µM (Adrenergic α1D) | inhibition at 10 µM (Dopamine D4.2) | Inhibitory rate (%), GABAA, Muscimol, Central (GABAA, Muscimol, Central) | inhibition at 10 µM (Histamine H3) | inhibition at 10 µM (Neuropeptide Y Y2) | Inhibitory rate (%), Nicotinic Acetylcholine (Nicotinic Acetylcholine) | inhibition at 10 µM [1] | inhibition at 10 µM (Opiate κ(OP2, KOP)) | Inhibitory rate (%), Potassium Channel [KATP] (Potassium Channel [KATP]) | inhibition at 10 µM (Potassium Channel hERG) | inhibition at 10 µM (Prostanoid EP4) | Inhibitory rate (%), Rolipram (Rolipram) | inhibition at 10 µM [2] | IC50 (A498) | IC50 (A549)
Nc1ccc(-c2ccc3ncc4c(=O)[nH]c(=O)n(-c5cccc(C(F)(F)F)c5)c4c3n2)cn1 [Compound 5, 9-(6-aminopyridin-3-yl)-1-(3-(trifluoromethyl)phenyl)pyrimido[5,4-c][1,5]naphthyridine-2,4(1H,3H)-dione] | 13% | 21% | 9% | 12% | 18% | 16% | 10% | 7% | 4% | 10% | 11% | 2% | 19% | 20% | 1% | 83.7 nM | 
O=c1[nH]c(=O)n(-c2cccc(C(F)(F)F)c2)c2c1cnc1ccc(-c3cnc4[nH]ccc4c3)nc12 [Compound 30, 9-(1H-pyrrolo[2,3-b]pyridin-5-yl)-1-(3-(trifluoromethyl)phenyl)pyrimido[5,4-c][1,5]naphthyridine-2,4(1H,3H)-dione] |  |  |  |  |  |  |  |  |  |  |  |  |  |  |  |  | 107 nM
